The source of these data is PubChem BioAssay AID1996.

Each structure is given as a SMILES string. In brackets after ≈: the same amount, converted by molar mass. Some results are limits rather than exact numbers.

The conditions of this series: buffer; pH 7.4; 200.0 µM.
Regarding `O=C1Nc2ccc(Br)cc2C(c2ccccc2)=NC1O` (stereo not given), the kinetic solubility (commonly solubility judged after dilution from a stock solution rather than from solid) was over 49.7 µg/mL.

As to `CN(c1ccccc1)S(=O)(=O)c1ccc(C(=O)N2CCN(c3ccccc3F)CC2)cc1`, the kinetic solubility is 3.6 µg/mL (≈ 7.94 µM).

Molecule `CCOC(=O)N1CCN(C(=O)COC(=O)c2ccc(N(C)C)cc2)CC1` yielded a kinetic solubility of over 54.5 µg/mL.

`COc1ccc(N(C(=O)c2ccncc2)S(=O)(=O)c2ccc(F)cc2)cc1`: the kinetic solubility came to 50.9 µg/mL (≈ 132 µM).

In turn, `Cc1cccc(S(=O)(=O)c2c(C)cc(C)[nH]c2=O)c1` showed a kinetic solubility of over 41.6 µg/mL.

The molecule `CNC(=S)N(CCc1c(C)[nH]c2ccccc12)Cc1cccnc1` yielded a kinetic solubility of over 50.8 µg/mL.

In the case of `CSc1cccc(CN2CCC(CCC(=O)NC3CC3)CC2)c1`, the kinetic solubility was over 49.9 µg/mL.

The molecule `CCC(=O)Nc1ccc(-c2ccc(NC(=O)CC)c(OC)c2)cc1OC` showed a kinetic solubility of 7.1 µg/mL (≈ 19.9 µM).

On to `O=C(NC(=S)Nc1cccnc1)c1cccc(Br)c1`, for which the solubility (kinetic) was determined as 8.1 µg/mL (≈ 24.1 µM).

Take `NC(=O)CSc1nc2ccccc2nc1SCC(N)=O`: the solubility (kinetic) was determined as 6.2 µg/mL (≈ 20.1 µM).

`CC(=O)N(CCC(c1ccco1)C(C)C)Cc1ccc(OC(C)C)cc1` (stereo not given) registered a solubility (kinetic) of 19.5 µg/mL (≈ 54.5 µM).

Regarding `COc1cc(C(=O)OCC(=O)N2CCCC2=O)cc(OC)c1C`, the solubility (kinetic) was over 48.2 µg/mL.

With `O=C(CN1CCCCC1)Nc1ccccc1Cl`, the kinetic solubility worked out at 26.8 µg/mL (≈ 106 µM).

`COc1cccc(NC(=O)c2cnc[nH]2)c1` returned a solubility (kinetic) of 30.5 µg/mL (≈ 140 µM).

Molecule `Cc1cc(C(=O)NCCc2ccc(S(N)(=O)=O)cc2)c(C)o1` came in with a kinetic solubility of over 48.4 µg/mL.

The molecule `Cc1cccnc1Nc1nc(-c2ccc(F)cc2)cs1` registered a solubility (kinetic) of 0.3 µg/mL (≈ 1.05 µM).

On to `CC(=O)Nc1cccc2c1C(=O)N(c1cccc(OC(C)=O)c1)C2=O`, for which the kinetic solubility is over 50.7 µg/mL.

Consider `CCN(/C=N/S(=O)(=O)c1ccc(Cl)cc1)CC`, for which the solubility (kinetic) was over 41.2 µg/mL.

For `CCOc1ccccc1NC(=O)COc1ccc2c(c1)OCO2`, the solubility (kinetic) is under 0.7 µg/mL.

In turn, `O=C1c2ccc([N+](=O)[O-])cc2C(=O)N1c1ccc(Cl)cn1` showed a kinetic solubility of over 45.5 µg/mL.

`O=C(COC(=O)c1cc2ccccc2cc1O)Nc1ccccc1F`: the solubility (kinetic) was 6.3 µg/mL (≈ 18.6 µM).

As for `COc1ccccc1NS(=O)(=O)c1cc(N)ccc1N1CCCC1`, the solubility (kinetic) was 21.4 µg/mL (≈ 61.6 µM).

As for `Cn1cc(SCC(=O)NC2CCCC2)c2ccccc21`, the kinetic solubility was over 43.3 µg/mL.

`Cc1cc(NC(=O)CSc2nc(C)c(C)c(=O)[nH]2)no1` had a kinetic solubility of over 44.1 µg/mL.

`Cl.O=[N+]([O-])c1ccccc1OCC(O)CNC1CCCC1` (stereo not given) gave a solubility (kinetic) of 46.2 µg/mL.

As for `CCn1ccc(C(=O)Nc2ncc(C)s2)n1`, the solubility (kinetic) is over 35.4 µg/mL.

In turn, `COC(=O)c1ccc(C)c(NC(=O)Cn2c(C)csc2=O)c1` displayed a kinetic solubility of over 48.1 µg/mL.

`CCc1nonc1NC(=O)COc1cc(C)c(Cl)c(C)c1` gave a solubility (kinetic) of 0.3 µg/mL (≈ 0.969 µM).

In the case of `C[C@H](NC(=O)c1ccccc1)C(=O)OCC(=O)Nc1sccc1C(N)=O`, the kinetic solubility is over 56.3 µg/mL.

For `CCC1(C)NC(=O)N(/N=C/c2ccc(C)s2)C1=O` (stereo not given), the kinetic solubility is over 39.8 µg/mL.

Take `COc1cc(OC)cc(C(=O)NCC(=O)N2CCN(Cc3ccccc3)CC2)c1`: the solubility (kinetic) was over 59.6 µg/mL.

`O=C1NC(c2ccc(Cl)cc2Cl)Oc2ccccc21` (stereo not given): the kinetic solubility is 0.9 µg/mL (≈ 3.06 µM).

In the case of `CC(=O)c1cccc(S(=O)(=O)Nc2ccccc2N2CCOCC2)c1`, the kinetic solubility is over 54.1 µg/mL.

As for `COc1cccc(CNC(=O)CCc2ccc(OC)c(OC)c2)c1`, the kinetic solubility was over 49.4 µg/mL.

In turn, `Cn1cnc(NCc2ccccc2)c1[N+](=O)[O-]` returned a solubility (kinetic) of 1.2 µg/mL (≈ 5.17 µM).

`C=CC1CN2CCC1CC2C(OC(C)=O)c1ccnc2ccc(OC)cc12` (stereo not given) had a solubility (kinetic) of over 55 µg/mL.

`O=C(COc1ccccc1Cl)Nc1ccc2c(c1)C(=O)NC2=O` displayed a solubility (kinetic) of under 0.4 µg/mL.

`Cc1cc(NS(=O)(=O)c2ccc(NC(=O)c3ccc([N+](=O)[O-])s3)cc2)nc(C)n1`: the kinetic solubility was over 65 µg/mL.

For the molecule `CC(NC(=O)COC(=O)c1c[nH]c2ccccc12)c1ccccc1` (stereo not given), the kinetic solubility amounted to 46.2 µg/mL (≈ 143 µM).

Consider `Cc1cc(C(=O)OCC(=O)Nc2c(Cl)cccc2Cl)c(C)o1`, for which the solubility (kinetic) is 8.7 µg/mL (≈ 25.4 µM).
